Test results from the NIST ThermoML archive (doi:10.1016/j.jct.2012.02.023).
Numbers after ± are expanded uncertainties.

Conditions: Liquid; for speed of sound / mass density: 101.33 kPa; for speed of sound: Sing-around technique in a fixed-path interferometer; for mass density: Vibrating tube method; for vapor or sublimation pressure: Closed cell (Static) method

Row | Compound | speed of sound (293.15 K) [m/s] | mass density (293.15 K) [kg/m3] | speed of sound (303.15 K) [m/s] | mass density (303.15 K) [kg/m3] | vapor or sublimation pressure (303.15 K) [kPa] | speed of sound (313.15 K) [m/s] | mass density (313.15 K) [kg/m3] | speed of sound (323.15 K) [m/s] | mass density (323.15 K) [kg/m3] | vapor or sublimation pressure (323.15 K) [kPa]
1 | CCO [ethanol] | 1160.1 ± 1.2 | 789.481 ± 0.15 | 1127.2 ± 1.2 | 781.302 ± 0.15 | 10.47 ± 0.045 | 1093.6 ± 1.2 | 772.569 ± 0.15 | 1060.4 ± 1.2 | 763.647 ± 0.16 | 29.57 ± 0.067
2 | CCCC[n+]1cccc(C)c1.F[B-](F)(F)F [1-butyl-3-methylpyridinium tetrafluoroborate] | 1598.5 ± 1.6 | 1185.65 ± 0.38 | 1573.8 ± 1.6 | 1178.86 ± 0.38 |  | 1550.1 ± 1.6 | 1172.11 ± 0.37 | 1527 ± 1.6 | 1165.37 ± 0.37 | 
3 | CCCC[n+]1ccc(C)cc1.F[B-](F)(F)F [1-butyl-4-methylpyridinium tetrafluoroborate] | 1611.8 ± 1.6 | 1185.92 ± 0.38 | 1586.7 ± 1.6 | 1179.12 ± 0.38 |  | 1562.8 ± 1.6 | 1172.12 ± 0.37 | 1539.3 ± 1.6 | 1165.52 ± 0.37 | 
4 | CO [methanol] | 1118.8 ± 1.2 | 791.243 ± 0.12 | 1086 ± 1.1 | 781.813 ± 0.13 | 21.93 ± 0.08 | 1053.5 ± 1.1 | 772.287 ± 0.13 | 1021.5 ± 1.1 | 762.628 ± 0.14 | 55.78 ± 0.12
